System: OCI-AML3 cells
Experiment: In vitro proliferation (Cell Titer Glo, 6 days) of Compound 51 in combination with idarubicin or decitabine, OCI-AML3
Type: cell-based, human
Conditions: for combination effect on proliferation (cytotoxicity): OCI-AML3 (NPM1c)
Method: 3) In Vitro Proliferation—Menin-MLL Inhibitor in Combination with FLT3 Inhibitor (Gilteritinib or Midostaurin), DNA Intercalating Agent (Idarubicin) or Hypomethylating Agent (Decitabine)
The effect of Compound 51 in combination with gilteritinib, midostaurin, idarubicin or decitabine was determined in proliferation assays.
AML cell lines MOLM-13, OCI-AML3 and MV4-11 were purchased from DSMZ. MOLM-13 were grown in RPMI medium supplemented with 10% Fetal Bovine Serum (FBS) and 1% penicillin/streptomycin. MV4-11 cells were grown in IMDM medium supplemented with 10% FBS and 1% penicillin/streptomycin. OCI-AML3 cells were cultured in 80-90% alpha-MEM (with or without ribo- and deoxyribonucleosides)+10-20% FBS. All cell lines were cultured at 37° C. in 5% CO2 atmosphere.
AML cell lines (10-20×10^3 cells/well) were seeded in 96-well plates and grown for 6 days in serum (10%)-containing medium in the presence or absence of inhibitors at the indicated concentrations. Proliferation was analyzed by means of a Cell Titer Glo assay using the […] (Promega, Madison, WI, USA), according to the manufacturer's instructions. Data are mean with standard deviation from two to four independent experiments in technical triplicates.
R-based Biochemically Intuitive Generalized Loewe (BIGL) model implemented with a highest single agent (HSA) null model. Specifically, the BIGL methodology was applied to calculate drug-drug interactions (Van der Borght, K., Tourny, A., Bagdziunas, R. et al. BIGL: Biochemically Intuitive Generalized Loewe null model for prediction of the expected combined effect compatible with partial agonism and antagonism. Sci Rep 7, 17935 (2017); Thas, O., Tourny, A., Verbist, B., Hawinkel, S., Nazarov, M., Mutambanengwe, K., & Bijnens, L. Statistical detection of synergy: New methods and a comparative study. Pharmaceutical Statistics (2021)).
Synergy matrix results of the BIGL analysis of the cell line data with HSA as mean model calculated on the basis of the cellular metabolic activity using Cell Titer-Glo assay. Bootstrap confidence intervals are indicated. Effect sizes and their confidence intervals are shown. […] No significant average effect if zero is included in the interval.

## CC(=O)N1CCC(CN2CC[C@@H](Cc3cn(-c4ccc(F)cc4C(=O)N(C)C(C)C)c4cncc(C)c34)C2)CC1 [Compound 51]
Compound 51 0.001 μm + Decitabine 0.0015 μM
  Effect size (BIGL, HSA null model), OCI-AML3 Cell Proliferation: −0.02
Compound 51 0.001 μm + Decitabine 0.015 μM
  Effect size (BIGL, HSA null model), OCI-AML3 Cell Proliferation: −0.06
Compound 51 0.001 μm + Decitabine 0.35 μM
  Effect size (BIGL, HSA null model), OCI-AML3 Cell Proliferation: −0.04
Compound 51 0.001 μm + Decitabine 3 μM
  Effect size (BIGL, HSA null model), OCI-AML3 Cell Proliferation: 0.01
Compound 51 0.001 μm + Decitabine 3.5 μM
  Effect size (BIGL, HSA null model), OCI-AML3 Cell Proliferation: −0.02
Compound 51 0.001 μm + Idarubicin 0.0005 μM
  Effect size (BIGL, HSA null model), OCI-AML3 Cell Proliferation: −0.02
Compound 51 0.001 μm + Idarubicin 0.00625 μM
  Effect size (BIGL, HSA null model), OCI-AML3 Cell Proliferation: 0
Compound 51 0.001 μm + Idarubicin 0.0125 μM
  Effect size (BIGL, HSA null model), OCI-AML3 Cell Proliferation: 0.02
Compound 51 0.001 μm + Idarubicin 0.025 μM
  Effect size (BIGL, HSA null model), OCI-AML3 Cell Proliferation: 0
Compound 51 0.001 μm + Idarubicin 0.05 μM
  Effect size (BIGL, HSA null model), OCI-AML3 Cell Proliferation: −0.01
Compound 51 0.001 μm + Idarubicin 0.5 μM
  Effect size (BIGL, HSA null model), OCI-AML3 Cell Proliferation: −0.01
Compound 51 0.01 μm + Decitabine 0.0015 μM
  Effect size (BIGL, HSA null model), OCI-AML3 Cell Proliferation: −0.01
Compound 51 0.01 μm + Decitabine 0.015 μM
  Effect size (BIGL, HSA null model), OCI-AML3 Cell Proliferation: −0.1
Compound 51 0.01 μm + Decitabine 0.35 μM
  Effect size (BIGL, HSA null model), OCI-AML3 Cell Proliferation: −0.07
Compound 51 0.01 μm + Decitabine 3 μM
  Effect size (BIGL, HSA null model), OCI-AML3 Cell Proliferation: 0
Compound 51 0.01 μm + Decitabine 3.5 μM
  Effect size (BIGL, HSA null model), OCI-AML3 Cell Proliferation: −0.02
Compound 51 0.01 μm + Idarubicin 0.0005 μM
  Effect size (BIGL, HSA null model), OCI-AML3 Cell Proliferation: 0.05
Compound 51 0.01 μm + Idarubicin 0.00625 μM
  Effect size (BIGL, HSA null model), OCI-AML3 Cell Proliferation: −0.02
Compound 51 0.01 μm + Idarubicin 0.0125 μM
  Effect size (BIGL, HSA null model), OCI-AML3 Cell Proliferation: 0.01
Compound 51 0.01 μm + Idarubicin 0.025 μM
  Effect size (BIGL, HSA null model), OCI-AML3 Cell Proliferation: 0
Compound 51 0.01 μm + Idarubicin 0.05 μM
  Effect size (BIGL, HSA null model), OCI-AML3 Cell Proliferation: −0.01
Compound 51 0.01 μm + Idarubicin 0.5 μM
  Effect size (BIGL, HSA null model), OCI-AML3 Cell Proliferation: −0.01
Compound 51 0.05 μm + Decitabine 0.0015 μM
  Effect size (BIGL, HSA null model), OCI-AML3 Cell Proliferation: 0
Compound 51 0.05 μm + Decitabine 0.015 μM
  Effect size (BIGL, HSA null model), OCI-AML3 Cell Proliferation: 0
Compound 51 0.05 μm + Decitabine 0.35 μM
  Effect size (BIGL, HSA null model), OCI-AML3 Cell Proliferation: −0.1
Compound 51 0.05 μm + Decitabine 3 μM
  Effect size (BIGL, HSA null model), OCI-AML3 Cell Proliferation: 0
Compound 51 0.05 μm + Decitabine 3.5 μM
  Effect size (BIGL, HSA null model), OCI-AML3 Cell Proliferation: −0.03
Compound 51 0.05 μm + Idarubicin 0.0005 μM
  Effect size (BIGL, HSA null model), OCI-AML3 Cell Proliferation: 0.04
Compound 51 0.05 μm + Idarubicin 0.00625 μM
  Effect size (BIGL, HSA null model), OCI-AML3 Cell Proliferation: −0.04
Compound 51 0.05 μm + Idarubicin 0.0125 μM
  Effect size (BIGL, HSA null model), OCI-AML3 Cell Proliferation: 0
Compound 51 0.05 μm + Idarubicin 0.025 μM
  Effect size (BIGL, HSA null model), OCI-AML3 Cell Proliferation: −0.01
Compound 51 0.05 μm + Idarubicin 0.05 μM
  Effect size (BIGL, HSA null model), OCI-AML3 Cell Proliferation: −0.01
Compound 51 0.05 μm + Idarubicin 0.5 μM
  Effect size (BIGL, HSA null model), OCI-AML3 Cell Proliferation: −0.01
Compound 51 0.1 μm + Decitabine 0.0015 μM
  Effect size (BIGL, HSA null model), OCI-AML3 Cell Proliferation: 0.01
Compound 51 0.1 μm + Decitabine 0.015 μM
  Effect size (BIGL, HSA null model), OCI-AML3 Cell Proliferation: 0.08
Compound 51 0.1 μm + Decitabine 0.35 μM
  Effect size (BIGL, HSA null model), OCI-AML3 Cell Proliferation: −0.07
Compound 51 0.1 μm + Decitabine 3 μM
  Effect size (BIGL, HSA null model), OCI-AML3 Cell Proliferation: 0
Compound 51 0.1 μm + Decitabine 3.5 μM
  Effect size (BIGL, HSA null model), OCI-AML3 Cell Proliferation: −0.02
Compound 51 0.1 μm + Idarubicin 0.0005 μM
  Effect size (BIGL, HSA null model), OCI-AML3 Cell Proliferation: 0.01
Compound 51 0.1 μm + Idarubicin 0.00625 μM
  Effect size (BIGL, HSA null model), OCI-AML3 Cell Proliferation: −0.05
Compound 51 0.1 μm + Idarubicin 0.0125 μM
  Effect size (BIGL, HSA null model), OCI-AML3 Cell Proliferation: 0
Compound 51 0.1 μm + Idarubicin 0.025 μM
  Effect size (BIGL, HSA null model), OCI-AML3 Cell Proliferation: 0
Compound 51 0.1 μm + Idarubicin 0.05 μM
  Effect size (BIGL, HSA null model), OCI-AML3 Cell Proliferation: −0.01
Compound 51 0.1 μm + Idarubicin 0.5 μM
  Effect size (BIGL, HSA null model), OCI-AML3 Cell Proliferation: −0.01
Compound 51 1 μm + Decitabine 0.0015 μM
  Effect size (BIGL, HSA null model), OCI-AML3 Cell Proliferation: 0.02
Compound 51 1 μm + Decitabine 0.015 μM
  Effect size (BIGL, HSA null model), OCI-AML3 Cell Proliferation: 0.13
Compound 51 1 μm + Decitabine 0.35 μM
  Effect size (BIGL, HSA null model), OCI-AML3 Cell Proliferation: 0.01
Compound 51 1 μm + Decitabine 3 μM
  Effect size (BIGL, HSA null model), OCI-AML3 Cell Proliferation: 0
Compound 51 1 μm + Decitabine 3.5 μM
  Effect size (BIGL, HSA null model), OCI-AML3 Cell Proliferation: −0.02
Compound 51 1 μm + Idarubicin 0.0005 μM
  Effect size (BIGL, HSA null model), OCI-AML3 Cell Proliferation: −0.03
Compound 51 1 μm + Idarubicin 0.00625 μM
  Effect size (BIGL, HSA null model), OCI-AML3 Cell Proliferation: −0.06
Compound 51 1 μm + Idarubicin 0.0125 μM
  Effect size (BIGL, HSA null model), OCI-AML3 Cell Proliferation: 0
Compound 51 1 μm + Idarubicin 0.025 μM
  Effect size (BIGL, HSA null model), OCI-AML3 Cell Proliferation: −0.01
Compound 51 1 μm + Idarubicin 0.05 μM
  Effect size (BIGL, HSA null model), OCI-AML3 Cell Proliferation: −0.01
Compound 51 1 μm + Idarubicin 0.5 μM
  Effect size (BIGL, HSA null model), OCI-AML3 Cell Proliferation: −0.01
Compound 51 10 μm + Decitabine 0.0015 μM
  Effect size (BIGL, HSA null model), OCI-AML3 Cell Proliferation: 0.01
Compound 51 10 μm + Decitabine 0.015 μM
  Effect size (BIGL, HSA null model), OCI-AML3 Cell Proliferation: 0.1
Compound 51 10 μm + Decitabine 0.35 μM
  Effect size (BIGL, HSA null model), OCI-AML3 Cell Proliferation: −0.02
Compound 51 10 μm + Decitabine 3 μM
  Effect size (BIGL, HSA null model), OCI-AML3 Cell Proliferation: 0.01
Compound 51 10 μm + Decitabine 3.5 μM
  Effect size (BIGL, HSA null model), OCI-AML3 Cell Proliferation: −0.01
Compound 51 10 μm + Idarubicin 0.0005 μM
  Effect size (BIGL, HSA null model), OCI-AML3 Cell Proliferation: 0.04
Compound 51 10 μm + Idarubicin 0.00625 μM
  Effect size (BIGL, HSA null model), OCI-AML3 Cell Proliferation: −0.06
Compound 51 10 μm + Idarubicin 0.0125 μM
  Effect size (BIGL, HSA null model), OCI-AML3 Cell Proliferation: 0
Compound 51 10 μm + Idarubicin 0.025 μM
  Effect size (BIGL, HSA null model), OCI-AML3 Cell Proliferation: −0.01
Compound 51 10 μm + Idarubicin 0.05 μM
  Effect size (BIGL, HSA null model), OCI-AML3 Cell Proliferation: −0.01
Compound 51 10 μm + Idarubicin 0.5 μM
  Effect size (BIGL, HSA null model), OCI-AML3 Cell Proliferation: −0.01
In combination with decitabine, 6-day CellTiter-Glo matrix
  combination effect on proliferation (cytotoxicity): not antagonistically cytotoxic
In combination with idarubicin, 6-day Cell Titer-Glo matrix
  combination effect on proliferation (cytotoxicity): not antagonistically cytotoxic

From patent US20260191835A1, “COMBINATIONS COMPRISING A MENIN-MLL INHIBITOR AND AT LEAST ONE OTHER THERAPEUTIC AGENT” (JANSSEN PHARMACEUTICA NV, priority 2022, published 2026)
